A word on the Ki: it is a measure of affinity in units of concentration, obtained from inhibition or displacement.

Counter-ions that a name gives are not always drawn.

In the first experiment the target is T1, Sigma 2 (Rattus norvegicus, UniProt Q5U3Y7).
T1 sequence (Q5U3Y7 1-176): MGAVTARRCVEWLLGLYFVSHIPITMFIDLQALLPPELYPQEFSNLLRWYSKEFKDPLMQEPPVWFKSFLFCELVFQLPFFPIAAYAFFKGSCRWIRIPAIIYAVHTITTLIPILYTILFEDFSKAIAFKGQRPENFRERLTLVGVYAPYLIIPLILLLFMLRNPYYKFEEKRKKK
Experiment: not given
Conditions: read-out: Sigma 2 Ki; [^3H]-DTG 1 nM, 500 nM pentazocine, crude P2 membrane fraction from rat livers, 50 mM Tris-HCl pH 7.4, 25°C, 2 hours.
As to `N=c1sc2cc(Cl)ccc2n1CC1CCN(C[C@H](O)c2ccc(F)cc2)CC1` (racemic) [Example 3, (R,S)-1-(4-Fluorophenyl)-2-[4-(6-chloro-2-iminobenzothiazolin-3-ylmethyl)-piperidin-1-yl]ethanol dihydrochloride], the inhibition constant Ki was determined as 35 nM.

Another experiment addresses T1, Sigma 2. Put plainly: biochemical.
Details: not given
`N=c1sc2cc(Cl)ccc2n1CC1CCN(CC(O)C23CC4CC(CC(C4)C2)C3)CC1` (racemic) [Example 1, (R,S)-1-(1-Adamantyl)-2-[4-(6-chloro-2-iminobenzothiazolin-3-ylmethyl)piperidin-1-yl] ethanol dihydrochloride] showed a Ki of 8.7 nM. Still for that read-out and setting: to `CN=c1sc2cc(Cl)ccc2n1CC1CCN(CC(O)c2ccc(F)cc2)CC1` (racemic) [Example 5, (R,S)-1-(4-Fluorophenyl)-2-[4-(6-chloro-2-methyliminobenzothiazolin-3-yl-methyl)piperidin-1-yl]ethanol dihydrochloride] belongs 7.2 nM; to `N=c1sc2cc(Cl)ccc2n1CC1CCN(CC(O)c2ccc(F)c(F)c2)CC1` (racemic) [Example 6, (R,S)-1-(3,4-Difluorophenyl)-2-[4-(6-chloro-2-iminobenzothiazolin-3-yl-methyl)piperidin-1-yl]ethanol dihydrochloride], 25 nM. On the same count and under the same terms, the value for `N=c1sc2cc(Cl)ccc2n1CC1CCN(CC(O)c2cccc(F)c2)CC1` (racemic) [Example 11, (R,S)-1-(3-Fluorophenyl)-2-[4-(6-chloro-2-iminobenzothiazolin-3-yl-methyl)piperidin-1-yl]ethanol dihydrochloride] was 36 nM.

As for `CN=c1sc2cc(Cl)ccc2n1CC1CCN(CC(O)c2ccc(F)cc2F)CC1` (racemic) [Example 22, (R,S)-1-(2,4-Difluorophenyl)-2-[4-(6-chloro-2-methyliminobenzothiazolin-3-ylmethyl)piperidin-1-yl]ethanol dihydrochloride], the affinity, expressed as Ki, was 9.4 nM.

For `CN=c1sc2cc(Cl)ccc2n1CCCCN(C)CC(O)c1ccc(F)cc1` (racemic) [Example 30, (R,S)-1-(4-Fluorophenyl)-2-[[N-[4-(6-chloro-2-methyliminobenzothiazolin-3-yl)butyl]-N-methyl]amino]ethanol dihydrochloride], the affinity corresponds to a Ki of 25 nM. As to `O=c1sc2cc(Br)ccc2n1CC1CCN(CC(O)c2ccc(F)cc2)CC1` (racemic) [Example 32, (R,S)-1-(4-Fluorophenyl)-2-[4-(6-bromo-2-oxobenzothiazolin-3-ylmethyl)-piperidin-1-yl]ethanol hydrochloride], the Ki was 4 nM. Still for that read-out and setting: to `O=c1sc2ccc(Cl)cc2n1CC1CCN(CC(O)c2ccc(F)cc2)CC1` (racemic) [Example 40, (R,S)-1-(4-Fluorophenyl)-2-[4-(5-chloro-2-oxobenzothiazolin-3-ylmethyl)piperidin-1-yl]ethanol hydrochloride] belongs 4.7 nM; to `N=c1sc2cc(Cl)ccc2n1CC1CCN(CC(=O)c2ccc(F)cc2)CC1` [Example 2, 3-[[1-[2-(4-Fluorophenyl)-2-oxoethyl]-4-piperidinyl]methyl]-6-chloro-2-iminobenzothiazoline dihydrochloride], 7 nM; to `CN=c1sc2cc(Cl)ccc2n1CC1CCN(CC(=O)c2ccc(F)cc2)CC1` [Example 4, 3-[[1-[2-(-Fluorophenyl)-2-oxoethyl]-4-piperidinyl]methyl]-6-chloro-2-methyliminobenzothiazoline dihydrochloride], 4 nM. Same read-out and setting: the value for `CC(=O)N=c1sc2cc(Cl)ccc2n1CC1CCN(CC(=O)c2ccc(F)cc2)CC1` [Example 9, 3-[[1-[2-(4-Fluorophenyl)-2-oxoethyl]-4-piperidinyl]methyl]-6-chloro-2-acetyliminobenzothiazoline hydrochloride] was 9.3 nM; that for `N=c1sc2ccccc2n1CC1CCN(CC(=O)c2ccc(F)cc2)CC1` [Example 15, 3-[[1-[2-(4-Fluorophenyl)-2-oxoethyl]-4-piperidinyl]methyl]-2-iminobenzothiazoline dihydrochloride] was 28 nM. Turning to `Cc1ccc2c(c1)sc(=N)n2CC1CCN(CC(=O)c2ccc(F)cc2)CC1` [Example 18, 3-[[1-[2-(4-Fluorophenyl)-2-oxoethyl]-4-piperidinyl]methyl]-6-methyl-2-iminobenzothiazoline dihydrochloride], affinity was put at a Ki of 23 nM. Still for that read-out and setting: to `N=c1sc2cc(F)ccc2n1CC1CCN(CC(=O)c2ccc(F)cc2)CC1` [Example 19, 3-[[1-[2-(4-Fluorophenyl)-2-oxoethyl]-4-piperidinyl]methyl]-6-fluoro-2-iminobenzothiazoline dihydrochloride] belongs 21 nM. Still for that read-out and setting: to `CN=c1sc2cc(Cl)ccc2n1CC1CCN(CC(=O)c2ccc(S(N)(=O)=O)cc2)CC1` [Example 21, 3-[[1-[2-(4-Aminosulfonylphenyl)-2-oxoethyl]-4-piperidinyl]methyl]-6-chloro-2-methyliminobenzothiazoline dihydrochloride] belongs 17 nM. In turn, `N=c1sc2cc(C(F)(F)F)ccc2n1CC1CCN(CC(=O)c2ccc(F)cc2)CC1` [Example 23, 3-[[1-[2-(4-Fluorophenyl)-2-oxoethyl]-4-piperidinyl]methyl]-2-imino-6-trifluoromethylbenzothiazoline dihydrochloride] displayed a Ki of 7.3 nM. `CN=c1sc2cc(Cl)ccc2n1CC1CCN(C[C@H](O)c2ccc(F)cc2)CC1` [Example 27, (R)-1-(4-Fluorophenyl)-2-[4-(6-chloro-2-methyliminobenzothiazolin-3-yl-methyl)piperidin-1-yl]ethanol dihydrochloride] came in with a Ki of 17 nM. Same read-out and setting: the value for `CN=c1sc2cc(Cl)ccc2n1CC1CCN(C[C@@H](O)c2ccc(F)cc2)CC1` [Example 28, (S)-1-(4-Fluorophenyl)-2-[4-(6-chloro-2-methyliminobenzothiazolin-3-yl-methyl)piperidine-1-yl]ethanol dihydrochloride] was 19 nM; that for `O=C(CN1CCC(Cn2c(=O)sc3cc(Br)ccc32)CC1)c1ccc(F)cc1` [Example 31, 3-[[1-[2-(4-Fluorophenyl)-2-oxoethyl]-4-piperidinyl]methyl]-6-bromo-2-oxobenzothiazoline hydrochloride] was 6.3 nM.

Consider `O=C(CN1CCC(Cn2c(=O)sc3cc(Cl)ccc32)CC1)c1ccc(F)cc1` [Example 33, 3-[[1-[2-(4-Fluorophenyl)-2-oxoethyl]-4-piperidinyl]methyl]-6-chloro-2-oxobenzothiazoline hydrochloride], for which the Ki is 4.5 nM. Same read-out and setting: the value for `O=C(CN1CCC(Cn2c(=O)sc3cc([N+](=O)[O-])ccc32)CC1)c1ccc(F)cc1` [Example 35, 3-[[1-[2-(4-Fluorophenyl)-2-oxoethyl]-4-piperidinyl]methyl]-6-nitro-2-oxobenzothiazoline hydrochloride] was 13 nM. The same measure, in the same setting: to `O=c1sc2cc([N+](=O)[O-])ccc2n1CC1CCN(CC(O)c2ccc(F)cc2)CC1` (stereo not drawn) [Example 36, 1-(4-Fluorophenyl)-2-[4-(6-nitro-2-oxobenzothiazolin-3-ylmethyl)piperidin-1-yl]ethanol hydrochloride] belongs 31 nM. For `O=C(CN1CCC(Cn2c(=O)sc3ccc(Cl)cc32)CC1)c1ccc(F)cc1` [Example 39, 3-[[1-[2-(4-Fluorophenyl)-2-oxoethyl]-4-piperidinyl]methyl]-5-chloro-2-oxobenzothiazoline hydrochloride], the affinity corresponds to a Ki of 3.1 nM.

Values taken from patent EP1043319A1, “NOVEL ALKYLAMINO DERIVATIVES” (MITSUBISHI CHEMICAL CORPORATION, priority 1997, dated 1999).
